Legend:
Assay in all cases: Histone peptide microarray
Type in all cases: binding, human
[1] = test system: KDM5B (3); settings: each array performed twice, total n = 4; for Array Heatmap signal (histone peptide microarray): GST-tagged KDM5B (3), sheet Array Heatmap
In short: (§1)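 Histone peptide library (293 synthetic peptides, single/combinatorial PTMs) arrayed and probed with 0.5 μM purified GST-PHD domain; optimized protocol; quadruplicate mean and SD reported.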

[2] = test system: TAF3; settings: each array performed twice, total n = 4; for Array Heatmap signal (histone peptide microarray): GST-tagged TAF3, sheet Array Heatmap
In short: as §1

[3] = test system: PHF23; settings: each array performed twice, total n = 4; for Array Heatmap signal (histone peptide microarray): GST-tagged PHF23, sheet Array Heatmap
In short: as §1

[4] = test system: ING5; settings: each array performed twice, total n = 4; for Array Heatmap signal (histone peptide microarray): GST-tagged ING5, sheet Array Heatmap
In short: as §1

[5] = test system: CHD5 (PCC); settings: each array performed twice, total n = 4; for Array Heatmap signal (histone peptide microarray): GST-tagged CHD5 (PCC = PHD + Dual Chromodomain), sheet Array Heatmap
In short: as §1

[6] = test system: PHF21A; settings: each array performed twice, total n = 4; for Array Heatmap signal (histone peptide microarray): GST-tagged PHF21A, sheet Array Heatmap
In short: as §1

[7] = test system: PHF13; settings: each array performed twice, total n = 4; for Array Heatmap signal (histone peptide microarray): GST-tagged PHF13, sheet Array Heatmap
In short: as §1

[8] = test system: TRIM66 (PB); settings: each array performed twice, total n = 4; for Array Heatmap signal (histone peptide microarray): GST-tagged TRIM66 (PB = PHD + Bromodomain), sheet Array Heatmap
In short: as §1

[9] = test system: PHF8; settings: each array performed twice, total n = 4; for Array Heatmap signal (histone peptide microarray): GST-tagged PHF8, sheet Array Heatmap
In short: as §1

[10] = test system: PHRF1 (RP); settings: each array performed twice, total n = 4; for Array Heatmap signal (histone peptide microarray): GST-tagged PHRF1 (RP), sheet Array Heatmap
In short: as §1

[11] = test system: KDM5A (3); settings: each array performed twice, total n = 4; for Array Heatmap signal (histone peptide microarray): GST-tagged KDM5A (3), sheet Array Heatmap
In short: as §1

[12] = test system: DIDO1; settings: each array performed twice, total n = 4; for Array Heatmap signal (histone peptide microarray): GST-tagged DIDO1, sheet Array Heatmap
In short: as §1

[13] = test system: ING1; settings: each array performed twice, total n = 4; for Array Heatmap signal (histone peptide microarray): GST-tagged ING1, sheet Array Heatmap
In short: as §1

[14] = test system: CHD4 (PPCC); settings: each array performed twice, total n = 4; for Array Heatmap signal (histone peptide microarray): GST-tagged CHD4 (PPCC = Dual PHD + Dual Chromodomain), sheet Array Heatmap
In short: as §1

[15] = test system: MLL5; settings: each array performed twice, total n = 4; for Array Heatmap signal (histone peptide microarray): GST-tagged MLL5, sheet Array Heatmap
In short: as §1

[16] = test system: DPF2 (PPC2W2); settings: each array performed twice, total n = 4; for Array Heatmap signal (histone peptide microarray): GST-tagged DPF2 (PPC2W2 = Dual PHD + C2W2-type Zn-finger), sheet Array Heatmap
In short: as §1

[17] = test system: ING4; settings: each array performed twice, total n = 4; for Array Heatmap signal (histone peptide microarray): GST-tagged ING4, sheet Array Heatmap
In short: as §1

[18] = test system: CHD5 (PPCC); settings: each array performed twice, total n = 4; for Array Heatmap signal (histone peptide microarray): GST-tagged CHD5 (PPCC = Dual PHD + Dual Chromodomain), sheet Array Heatmap
In short: as §1

[19] = test system: AIRE (PP); settings: each array performed twice, total n = 4; for Array Heatmap signal (histone peptide microarray): GST-tagged AIRE (PP), sheet Array Heatmap
In short: as §1

[20] = test system: BAZ2B; settings: each array performed twice, total n = 4; for Array Heatmap signal (histone peptide microarray): GST-tagged BAZ2B, sheet Array Heatmap
In short: as §1

[21] = test system: KDM5B (1); settings: each array performed twice, total n = 4; for Array Heatmap signal (histone peptide microarray): GST-tagged KDM5B (1), sheet Array Heatmap
In short: as §1

[22] = test system: PHF2; settings: each array performed twice, total n = 4; for Array Heatmap signal (histone peptide microarray): GST-tagged PHF2, sheet Array Heatmap
In short: as §1

[23] = test system: ING3; settings: each array performed twice, total n = 4; for Array Heatmap signal (histone peptide microarray): GST-tagged ING3, sheet Array Heatmap
In short: as §1

[24] = test system: BPTF (PB); settings: each array performed twice, total n = 4; for Array Heatmap signal (histone peptide microarray): GST-tagged BPTF (PB = PHD + Bromodomain), sheet Array Heatmap
In short: as §1

[25] = test system: KDM5A (1); settings: each array performed twice, total n = 4; for Array Heatmap signal (histone peptide microarray): GST-tagged KDM5A (1), sheet Array Heatmap
In short: as §1

[26] = test system: KDM7A; settings: each array performed twice, total n = 4; for Array Heatmap signal (histone peptide microarray): GST-tagged KDM7A, sheet Array Heatmap
In short: as §1

[27] = test system: RAG2; settings: each array performed twice, total n = 4; for Array Heatmap signal (histone peptide microarray): GST-tagged RAG2, sheet Array Heatmap
In short: as §1

[28] = test system: ING2; settings: each array performed twice, total n = 4; for Array Heatmap signal (histone peptide microarray): GST-tagged ING2, sheet Array Heatmap
In short: as §1

[29] = test system: MORC3 (CW); settings: each array performed twice, total n = 4; for Array Heatmap signal (histone peptide microarray): GST-tagged MORC3 (CW = CW-type Zn-finger), sheet Array Heatmap
In short: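 A peptide microarray holding 293 synthetic histone peptides with individual or combinatorial modifications was probed with each GST-PHD protein at 0.5 μM. Values represent mean intensity (±SD) from four replicates.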

[30] = test system: KDM4C (TTP); settings: each array performed twice, total n = 4; for Array Heatmap signal (histone peptide microarray): GST-tagged KDM4C (TTP = Tandem Tudor domain + PHD), sheet Array Heatmap
In short: as §1

[31] = test system: SP140L; settings: each array performed twice, total n = 4; for Array Heatmap signal (histone peptide microarray): GST-tagged SP140L, sheet Array Heatmap
In short: as §1

## H3K4me3 (1-11): H3 1-11
[1]; KDM5B (3), sheet "Array Heatmap"
  Array Heatmap value (peptide array signal): 0.5281
[2]; TAF3, sheet "Array Heatmap"
  Array Heatmap value (peptide array signal): 0.3193
[3]; PHF23, sheet "Array Heatmap"
  Array Heatmap value (peptide array signal): 0.5829
[4]; ING5, sheet "Array Heatmap"
  Array Heatmap value (peptide array signal): 0.3839
[5]; CHD5 (PCC), sheet "Array Heatmap"
  Array Heatmap value (peptide array signal): 0.8101
[6]; PHF21A, sheet "Array Heatmap"
  Array Heatmap value (peptide array signal): 0.5172
[7]; PHF13, sheet "Array Heatmap"
  Array Heatmap value (peptide array signal): 0.6221
[8]; TRIM66 (PB), sheet "Array Heatmap"
  Array Heatmap value (peptide array signal): 0.5622
[9]; PHF8, sheet "Array Heatmap"
  Array Heatmap value (peptide array signal): 0.4899
[10]; PHRF1 (RP), sheet "Array Heatmap"
  Array Heatmap value (peptide array signal): 0.4768
[11]; KDM5A (3), sheet "Array Heatmap"
  Array Heatmap value (peptide array signal): 0.6017
[12]; DIDO1, sheet "Array Heatmap"
  Array Heatmap value (peptide array signal): 0.7285
[13]; ING1, sheet "Array Heatmap"
  Array Heatmap value (peptide array signal): 0.5841
[14]; CHD4 (PPCC), sheet "Array Heatmap"
  Array Heatmap value (peptide array signal): 0.5943
[15]; MLL5, sheet "Array Heatmap"
  Array Heatmap value (peptide array signal): 0.6217
[16]; DPF2 (PPC2W2), sheet "Array Heatmap"
  Array Heatmap value (peptide array signal): 0.6949
[17]; ING4, sheet "Array Heatmap"
  Array Heatmap value (peptide array signal): 0.465
[18]; CHD5 (PPCC), sheet "Array Heatmap"
  Array Heatmap value (peptide array signal): 0.5701
[19]; AIRE (PP), sheet "Array Heatmap"
  Array Heatmap value (peptide array signal): 0.5119
[20]; BAZ2B, sheet "Array Heatmap"
  Array Heatmap value (peptide array signal): 0.4805
[21]; KDM5B (1), sheet "Array Heatmap"
  Array Heatmap value (peptide array signal): 0.6584
[22]; PHF2, sheet "Array Heatmap"
  Array Heatmap value (peptide array signal): 0.5693
[23]; ING3, sheet "Array Heatmap"
  Array Heatmap value (peptide array signal): 0.5106
[24]; BPTF (PB), sheet "Array Heatmap"
  Array Heatmap value (peptide array signal): 0.3697
[25]; KDM5A (1), sheet "Array Heatmap"
  Array Heatmap value (peptide array signal): 0.5087
[26]; KDM7A, sheet "Array Heatmap"
  Array Heatmap value (peptide array signal): 0.4006
[27]; RAG2, sheet "Array Heatmap"
  Array Heatmap value (peptide array signal): 0.3044
[28]; ING2, sheet "Array Heatmap"
  Array Heatmap value (peptide array signal): 0.6411
[29]; MORC3 (CW), sheet "Array Heatmap"
  Array Heatmap value (peptide array signal): 0.5155
[30]; KDM4C (TTP), sheet "Array Heatmap"
  Array Heatmap value (peptide array signal): 0.5306
[31]; SP140L, sheet "Array Heatmap"
  Array Heatmap value (peptide array signal): 0.3833

## H3K4me3 + K9ac + K14ac + K18ac: H3 1-20
[1]
  Array Heatmap signal (histone peptide microarray): 0.8339
[2]
  Array Heatmap signal (histone peptide microarray): 0.6574
[3]
  Array Heatmap signal (histone peptide microarray): 0.8373
[4]
  Array Heatmap signal (histone peptide microarray): 0.4716
[5]
  Array Heatmap signal (histone peptide microarray): 0.8618
[6]
  Array Heatmap signal (histone peptide microarray): 0.4925
[7]
  Array Heatmap signal (histone peptide microarray): 0.7829
[8]
  Array Heatmap signal (histone peptide microarray): 0.6004
[9]
  Array Heatmap signal (histone peptide microarray): 0.7502
[10]
  Array Heatmap signal (histone peptide microarray): 0.5895
[11]
  Array Heatmap signal (histone peptide microarray): 0.9909
[12]
  Array Heatmap signal (histone peptide microarray): 0.9126
[13]
  Array Heatmap signal (histone peptide microarray): 0.7787
[14]
  Array Heatmap signal (histone peptide microarray): 0.5745
[15]
  Array Heatmap signal (histone peptide microarray): 0.936
[16]
  Array Heatmap signal (histone peptide microarray): 0.7652
[17]
  Array Heatmap signal (histone peptide microarray): 0.625
[18]
  Array Heatmap signal (histone peptide microarray): 0.5931
[19]
  Array Heatmap signal (histone peptide microarray): 0.4865
[20]
  Array Heatmap signal (histone peptide microarray): 0.6196
[21]
  Array Heatmap signal (histone peptide microarray): 0.7481
[22]
  Array Heatmap signal (histone peptide microarray): 0.7873
[23]
  Array Heatmap signal (histone peptide microarray): 0.8559
[24]
  Array Heatmap signal (histone peptide microarray): 0.7619
[25]
  Array Heatmap signal (histone peptide microarray): 0.4983
[26]
  Array Heatmap signal (histone peptide microarray): 0.5567
[27]
  Array Heatmap signal (histone peptide microarray): 0.8746
[28]
  Array Heatmap signal (histone peptide microarray): 0.8772
[29]
  Array Heatmap signal (histone peptide microarray): 1
[30]
  Array Heatmap signal (histone peptide microarray): 0.6463
[31]
  Array Heatmap signal (histone peptide microarray): 0.3627

## H3K4me3 + K9ac + K18ac: H3 1-20
[1]
  Array Heatmap signal (histone peptide microarray): 0.9067
[2]
  Array Heatmap signal (histone peptide microarray): 0.7825
[3]
  Array Heatmap signal (histone peptide microarray): 0.8424
[4]
  Array Heatmap signal (histone peptide microarray): 0.4905
[5]
  Array Heatmap signal (histone peptide microarray): 0.8455
[6]
  Array Heatmap signal (histone peptide microarray): 0.4825
[7]
  Array Heatmap signal (histone peptide microarray): 0.8179
[8]
  Array Heatmap signal (histone peptide microarray): 0.7372
[9]
  Array Heatmap signal (histone peptide microarray): 1
[10]
  Array Heatmap signal (histone peptide microarray): 0.6174
[11]
  Array Heatmap signal (histone peptide microarray): 0.919
[12]
  Array Heatmap signal (histone peptide microarray): 0.9071
[13]
  Array Heatmap signal (histone peptide microarray): 0.8615
[14]
  Array Heatmap signal (histone peptide microarray): 0.5646
[15]
  Array Heatmap signal (histone peptide microarray): 0.9085
[16]
  Array Heatmap signal (histone peptide microarray): 0.728
[17]
  Array Heatmap signal (histone peptide microarray): 0.6909
[18]
  Array Heatmap signal (histone peptide microarray): 0.6046
[19]
  Array Heatmap signal (histone peptide microarray): 0.5297
[20]
  Array Heatmap signal (histone peptide microarray): 0.5371
[21]
  Array Heatmap signal (histone peptide microarray): 0.7108
[22]
  Array Heatmap signal (histone peptide microarray): 0.7127
[23]
  Array Heatmap signal (histone peptide microarray): 0.8253
[24]
  Array Heatmap signal (histone peptide microarray): 0.7655
[25]
  Array Heatmap signal (histone peptide microarray): 0.5009
[26]
  Array Heatmap signal (histone peptide microarray): 1
[27]
  Array Heatmap signal (histone peptide microarray): 0.8902
[28]
  Array Heatmap signal (histone peptide microarray): 0.8776
[29]
  Array Heatmap signal (histone peptide microarray): 0.8949
[30]
  Array Heatmap signal (histone peptide microarray): 0.7748
[31]
  Array Heatmap signal (histone peptide microarray): 0.3543
